# Assay results published in publication PMC8533206 (Antioxidants, 2021).
# Assays:
# [1] = target: T1, Human recombinant MAO-B (hMAO-B) (Homo sapiens, UniProt P27338); test: MAO-B inhibition assay (Amplex Red fluorescence, benzylamine substrate); assay type: biochemical; conditions: single dose 10 µM
# T1 construct: purchased Sigma-Aldrich; host or cells: insect cells
# T1 sequence (P27338 1-520): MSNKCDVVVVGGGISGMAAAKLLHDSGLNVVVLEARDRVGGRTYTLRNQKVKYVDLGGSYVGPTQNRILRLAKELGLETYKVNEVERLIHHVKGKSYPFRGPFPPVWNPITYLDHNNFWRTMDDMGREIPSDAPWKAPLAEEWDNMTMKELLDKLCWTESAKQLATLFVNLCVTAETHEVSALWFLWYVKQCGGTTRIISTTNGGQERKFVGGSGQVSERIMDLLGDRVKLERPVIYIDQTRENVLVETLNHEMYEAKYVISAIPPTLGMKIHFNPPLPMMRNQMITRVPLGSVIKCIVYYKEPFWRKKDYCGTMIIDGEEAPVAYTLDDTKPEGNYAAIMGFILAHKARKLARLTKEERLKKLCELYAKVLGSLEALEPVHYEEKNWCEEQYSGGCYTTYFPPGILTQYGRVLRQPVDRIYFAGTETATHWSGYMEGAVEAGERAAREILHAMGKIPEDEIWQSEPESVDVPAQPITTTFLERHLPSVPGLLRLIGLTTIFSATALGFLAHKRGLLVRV
# Experimental: The biological evaluation of the tested compounds over both MAO-A and MAO-B was performed following the previously reported method. The MAO activity was measured in relative fluorescence units (RFU) evoked by peroxidase-catalyzed oxidation of Amplex Red® to resorufin, in which H2O2 generated by MAO reaction was used as the electron donor. Human recombinant MAO-A (hMAO-A) and MAO-B (hMAO-B) enzymes expressed in insect cells were obtained from Sigma-Aldrich. The 2 μL of test compound in DMSO (final concentration: 1–10 μM) was treated with 98 μL of hMAO enzyme solution in 50 mM sodium phosphate buffer (pH 7.4, final protein amounts: ~1.25 μg protein/well for MAO-A and ~2.5 μg protein/well for MAO-B) on 96-well black plate and incubated for 15 min at 37 °C. Then, 100 μL of reaction working solution which is a mixed solution of 400 μM Amplex Red® (Cayman, final concentration: 200 μM), 2 U/mL horseradish peroxidase (Sigma-Aldrich, final concentration: 1 U/mL) and 2 mM substrate (p-tyramine for MAO-A, benzylamine for MAO-B, Sigma-Aldrich, final concentration: 1 mM) in 50 mM sodium phosphate buffer (pH 7.4) were added and incubated for 20 min at 37 °C in the dark. The fluorescent intensity was quantified using a microplate reader (SpectraMax®i3, Molecular Device) with an excitation at 545 nm and an emission at 590 nm. The 50% inhibitory concentrations (IC50) of compounds were determined as the mean ± S.E.M. in triplicate from the dose-response inhibition curves using SigmaPlot® 13.0 (Systat Software Inc., San Jose, CA, USA).
# MAO-B = conditions: single dose 10 μM, previous study; cited from earlier work
SMILES,inhibition at 10 µM [1] [%],melting point [°C],% MAO-B Inhibition (MAO-B) [%]
"CCNC(=O)Nc1ccc2c(ccn2C(=O)c2cccc(F)c2)c1 [Compound 4a, 1-Ethyl-3-(1-(3-fluorobenzoyl)-1H-indol-5-yl)urea]",46.2 ± 1.1,,
"CCOC(=O)CNC(=O)Nc1ccc2c(ccn2C(=O)c2cccc(F)c2)c1 [Compound 4b, Ethyl ((1-(3-fluorobenzoyl)-1H-indol-5-yl)carbamoyl)glycinate]",9.9 ± 1.5,203.3 to 204.3,
"O=C(NCCCl)Nc1ccc2c(ccn2C(=O)c2cccc(F)c2)c1 [Compound 4c, 1-(2-Chloroethyl)-3-(1-(3-fluorobenzoyl)-1H-indol-5-yl)urea]",26.6 ± 0.6,191.3 to 192.3,
"O=C(Nc1ccc2c(ccn2C(=O)c2cccc(F)c2)c1)NC1CCCCC1 [Compound 4d, 1-Cyclohexyl-3-(1-(3-fluorobenzoyl)-1H-indol-5-yl)urea]",44 ± 0.8,222.7 to 223.7,
"O=C(Nc1ccc([N+](=O)[O-])cc1)Nc1ccc2c(ccn2C(=O)c2cccc(F)c2)c1 [Compound 4e, 1-(1-(3-Fluorobenzoyl)-1H-indol-5-yl)-3-(4-nitrophenyl)urea]",47.9 ± 1.6,249.1 to 250.1,
"COc1ccc(NC(=O)Nc2ccc3c(ccn3C(=O)c3cccc(F)c3)c2)cc1 [Compound 4f, 1-(1-(3-Fluorobenzoyl)-1H-indol-5-yl)-3-(4-methoxyphenyl)urea]",32.5 ± 1.4,,
"COc1cc(NC(=O)Nc2ccc3c(ccn3C(=O)c3cccc(F)c3)c2)cc(OC)c1 [Compound 4g, 1-(3,5-Dimethoxyphenyl)-3-(1-(3-fluorobenzoyl)-1H-indol-5-yl)urea]",55.7 ± 0.2,235.6 to 236.6,
"O=C(Nc1cc(Cl)cc(Cl)c1)Nc1ccc2c(ccn2C(=O)c2cccc(F)c2)c1 [Compound 4h, 1-(3,5-Dichlorophenyl)-3-(1-(3-fluorobenzoyl)-1H-indol-5-yl)urea]",38.6 ± 1.6,,
"O=C(Nc1ccc(F)cc1)Nc1ccc2c(ccn2C(=O)c2cccc(F)c2)c1 [Compound 4i, 1-(1-(3-Fluorobenzoyl)-1H-indol-5-yl)-3-(4-fluorophenyl)urea]",37 ± 0.9,264.3 to 265.3,
"O=C(Nc1ccc(Cl)c(Cl)c1)Nc1ccc2c(ccn2C(=O)c2cccc(F)c2)c1 [Compound 4j, 1-(3,4-Dichlorophenyl)-3-(1-(3-fluorobenzoyl)-1H-indol-5-yl)urea]",53.5 ± 0.3,,
"O=C(Nc1ccc(Cl)c(C(F)(F)F)c1)Nc1ccc2c(ccn2C(=O)c2cccc(F)c2)c1 [Compound 4k, 1-(4-Chloro-3-(trifluoromethyl)phenyl)-3-(1-(3-fluorobenzoyl)-1H-indol-5-yl)urea]",42.1 ± 1.7,210.9 to 211.9,
"O=C(NCCc1ccc(F)cc1)Nc1ccc2c(ccn2C(=O)c2cccc(F)c2)c1 [Compound 4l, 1-(1-(3-Fluorobenzoyl)-1H-indol-5-yl)-3-(4-fluorophenethyl)urea]",42 ± 0.6,231.5 to 232.5,
"O=C(Nc1ccc(Oc2ccccc2)cc1)Nc1ccc2c(ccn2C(=O)c2cccc(F)c2)c1 [Compound 4m, 1-(1-(3-Fluorobenzoyl)-1H-indol-5-yl)-3-(4-phenoxyphenyl)urea]",38.1 ± 0.5,235.2 to 236.2,
"O=C(Nc1ccc(N2CCOCC2)cc1)Nc1ccc2c(ccn2C(=O)c2cccc(F)c2)c1 [Compound 4n, 1-(1-(3-Fluorobenzoyl)-1H-indol-5-yl)-3-(4-morpholinophenyl)urea]",32.9 ± 0.3,,
"O=C(c1cccc(F)c1)n1ccc2cc(NC(=S)NCCCl)ccc21 [Compound 5b, 1-(2-Chloroethyl)-3-(1-(3-fluorobenzoyl)-1H-indol-5-yl)thiourea]",45.6 ± 1.2,221.5 to 222.5,
Cn1ccc2cc(NC(=O)c3cnccn3)ccc21 [VII],,,49.68

# Now from value to compound, other results behind:
inhibition at 10 µM [1] [%],melting point [°C],SMILES,% MAO-B Inhibition (MAO-B) [%]
15.5 ± 1.1,199.4 to 200.4,"CCOC(=O)NC(=S)Nc1ccc2c(ccn2C(=O)c2cccc(F)c2)c1 [Compound 5a, 1-Ethoxycarbonyl-3-(1-(3-fluorobenzoyl)-1H-indol-5-yl)thiourea]",
43.9 ± 1.1,192.7 to 193.7,"O=C(c1cccc(F)c1)n1ccc2cc(NC(=S)Nc3ccc(N4CCOCC4)cc3)ccc21 [Compound 5c, 1-(1-(3-Fluorobenzoyl)-1H-indol-5-yl)-3-(4-morpholinophenyl)thiourea]",
46.8 ± 0.2,,"O=C(c1cccc(F)c1)n1ccc2cc(NC(=S)NCCN3CCOCC3)ccc21 [Compound 5d, 1-(1-(3-Fluorobenzoyl)-1H-indol-5-yl)-3-(2-morpholinoethyl)thiourea]",
44.7 ± 0.5,187.1 to 188.1,"O=C(c1cccc(F)c1)n1ccc2cc(NC(=S)NCCN3CCCCC3)ccc21 [Compound 5e, 1-(1-(3-Fluorobenzoyl)-1H-indol-5-yl)-3-(2-(piperidin-1-yl)ethyl)thiourea]",
34.1 ± 0.7,152.6 to 153.6,"O=C(c1cccc(F)c1)n1ccc2cc(NC(=S)NCc3ccco3)ccc21 [Compound 5f, 1-(1-(3-Fluorobenzoyl)-1H-indol-5-yl)-3-(furan-2-ylmethyl)thiourea]",
30.6 ± 0.9,,"O=C(c1cccc(F)c1)n1ccc2cc(NC(=S)Nc3ccc([N+](=O)[O-])cc3)ccc21 [Compound 5g, 1-(1-(3-Fluorobenzoyl)-1H-indol-5-yl)-3-(4-nitrophenyl)thiourea]",
32.5 ± 0.5,171.1 to 172.1,"COc1cc(NC(=S)Nc2ccc3c(ccn3C(=O)c3cccc(F)c3)c2)cc(OC)c1 [Compound 5h, 1-(3,5-Dimethoxyphenyl)-3-(1-(3-fluorobenzoyl)-1H-indol-5-yl)thiourea]",
59.8 ± 0.4,193.4 to 194.4,"O=C(c1cccc(F)c1)n1ccc2cc(NC(=S)Nc3ccc(Cl)c(Cl)c3)ccc21 [Compound 5i, 1-(3,4-Dichlorophenyl)-3-(1-(3-fluorobenzoyl)-1H-indol-5-yl)thiourea]",
51.1 ± 0.4,144.9 to 145.9,"O=C(c1cccc(F)c1)n1ccc2cc(NC(=S)Nc3cccnc3)ccc21 [Compound 5j, 1-(1-(3-Fluorobenzoyl)-1H-indol-5-yl)-3-(pyridin-3-yl)thiourea]",
26.8 ± 1.3,278.1 to 279.1,"O=C(Nc1ccc2c(ccn2C(=O)c2cccc(F)c2)c1)c1ccnc([N+](=O)[O-])c1 [Compound 6a, N-(1-(3-Fluorobenzoyl)-1H-indol-5-yl)-2-nitroisonicotinamide]",
33.8 ± 2.3,136.5 to 137.5,"CCOC(=O)Nc1ccc2c(ccn2C(=O)c2cccc(F)c2)c1 [Compound 6b, Ethyl (1-(3-fluorobenzoyl)-1H-indol-5-yl)carbamate]",
35.5 ± 1.5,,"CCOC(=O)C(=O)Nc1ccc2c(ccn2C(=O)c2cccc(F)c2)c1 [Compound 6c, Ethyl 2-((1-(3-fluorobenzoyl)-1H-indol-5-yl)amino)-2-oxoacetate]",
53 ± 0.3,237.6 to 238.6,"O=C(Nc1ccc2c(ccn2C(=O)c2cccc(F)c2)c1)c1ccc(Cl)c(Cl)c1 [Compound 6d, 3,4-Dichloro-N-(1-(3-fluorobenzoyl)-1H-indol-5-yl)benzamide]",
59.6 ± 0.3,226.6 to 227.6,"O=C(Nc1ccc2c(ccn2C(=O)c2cccc(F)c2)c1)c1coc2ccccc2c1=O [Compound 6e, N-(1-(3-fluorobenzoyl)-1H-indol-5-yl)-4-oxo-4H-chromene-3-carboxamide]",
49.8 ± 0.3,103.4 to 104.4,"COC(=O)c1ccc2c(ccn2C(=O)c2cccc(F)c2)c1 [Compound 7a, Methyl 1-(3-fluorobenzoyl)-1H-indole-5-carboxylate]",
34.2 ± 0.2,,"O=C(Nc1ccc(F)c(Cl)c1)c1ccc2[nH]ccc2c1 [Compound 8c, N-(3-chloro-4-fluorophenyl)-1H-indole-5-carboxamide]",
15.3 ± 0.8,131.6 to 132.6,"O=C(NCc1ccc2c(c1)OCO2)c1ccc2[nH]ccc2c1 [Compound 8d, N-(benzo[d][1,3]dioxol-5-ylmethyl)-1H-indole-5-carboxamide]",
